Measured values published in ChEMBL document CHEMBL1221295 (Bioorg Med Chem, 2010).
pKi: −log10 of the molar value.

Key:
[1] = target: T1, Melatonin receptor type 1B (Homo sapiens) (UniProt P49286); test: Intrinsic activity at human cloned MT2 receptor expressed in […] NIH3T3 cells assessed as increase of [35S]GTPgammaS binding relative to melatonin; type: functional, cell-based
T1 sequence (whole entry): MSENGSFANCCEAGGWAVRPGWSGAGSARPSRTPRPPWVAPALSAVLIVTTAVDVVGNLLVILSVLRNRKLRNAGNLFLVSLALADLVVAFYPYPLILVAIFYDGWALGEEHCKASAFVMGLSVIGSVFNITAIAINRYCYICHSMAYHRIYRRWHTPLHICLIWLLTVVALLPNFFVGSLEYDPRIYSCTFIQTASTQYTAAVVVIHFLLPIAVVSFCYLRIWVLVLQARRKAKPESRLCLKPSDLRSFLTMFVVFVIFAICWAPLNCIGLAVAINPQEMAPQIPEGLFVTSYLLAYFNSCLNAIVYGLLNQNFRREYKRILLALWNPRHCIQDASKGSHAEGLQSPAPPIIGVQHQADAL

[2] = target: T2, Melatonin receptor type 1A (Homo sapiens, UniProt P48039); test: Intrinsic activity at human cloned MT1 receptor expressed in […] NIH3T3 cells assessed as increase of [35S]GTPgammaS binding relative to melatonin; type: functional, cell-based
T2 sequence (P48039 whole entry): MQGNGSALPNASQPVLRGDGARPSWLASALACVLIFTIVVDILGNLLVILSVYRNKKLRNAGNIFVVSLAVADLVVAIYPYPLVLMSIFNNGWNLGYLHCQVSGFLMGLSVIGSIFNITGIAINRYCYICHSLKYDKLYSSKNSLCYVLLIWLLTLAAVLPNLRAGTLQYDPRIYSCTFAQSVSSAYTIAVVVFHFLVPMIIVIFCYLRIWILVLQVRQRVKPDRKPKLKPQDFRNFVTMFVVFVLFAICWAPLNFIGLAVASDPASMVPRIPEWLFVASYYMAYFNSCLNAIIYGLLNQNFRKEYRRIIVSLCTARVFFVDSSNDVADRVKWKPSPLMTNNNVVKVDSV

[3] = target: T2, Melatonin receptor type 1A; test: Displacement of [125I]iodomelatonin from human cloned MT1 receptor expressed in […] NIH3T3 cells after 90 mins; type: cell-based
[4] = target: T3, Melatonin receptor type 1B (Homo sapiens, UniProt P49286); test: Displacement of [125I]iodomelatonin from human cloned MT2 receptor expressed in […] NIH3T3 cells after 90 mins; type: cell-based
T3 sequence (P49286 whole entry): T1 sequence (whole entry)

Ratio [1] | Ratio [2] | pKi [3] | pKi [4] | Structure (SMILES)
1.09 | 1.01 | 8.77 | 8.33 | COc1cccc(O[C@@H](C)CNC(C)=O)c1
0.81 | 0.85 | 7.26 | 7.40 | COc1cccc(SCCNC(C)=O)c1
0.25 | -0.07 | 5.43 | 5.36 | CC(=O)N[C@@H](C)CSc1ccccc1
0.32 | 0.29 | 4.94 | 4.91 | COc1cccc(SC[C@@H](C)NC(C)=O)c1
0.43 | 0.35 | 4.44 | 5.31 | COc1cccc(OC[C@@H](C)NC(C)=O)c1
0.69 | 0.48 | 5.86 | 5.94 | CC(=O)NCC(C)Oc1ccccc1 (stereo unspecified)
-0.04 | -0.05 | 4.13 | 4.19 | CC(=O)N[C@H](C)CSc1ccccc1
0.5 | 0.22 | 5.42 | 6.47 | CC(=O)NCCSc1ccccc1
0.59 | 0.49 | 6.92 | 7.31 | COc1cccc(S[C@H](C)CNC(=O)C2CC2)c1
1.02 | 0.91 | 9.03 | 7.89 | COc1cccc(OC(C)CNC(=O)C2CC2)c1 (stereo unspecified)
0.86 | 1.06 | 7.09 | 7.17 | CCCC(=O)NC[C@@H](C)Oc1cccc(OC)c1
0.15 | 0.04 | 4.92 | 5.42 | CC(=O)NC(C)COc1ccccc1 (stereo unspecified)
1.01 | 1.01 | 8.44 | 8.02 | COc1cccc(OC(C)CNC(C)=O)c1 (stereo unspecified)
0.26 | 0.05 | 4.68 | 5.34 | CC(=O)N[C@@H](C)COc1ccccc1
0.8 | 0.75 | 6.46 | 6.52 | COc1cccc(OC[C@H](C)NC(C)=O)c1
1.12 | 1.04 | 8.38 | 8.43 | CCCC(=O)NCC(C)Oc1cccc(OC)c1 (stereo unspecified)
0.71 | 0.63 | 6.45 | 6.46 | COc1cccc(OCC(C)NC(C)=O)c1 (stereo unspecified)
0.5 | 0.3 | 6.32 | 6.58 | COc1cccc(SC[C@H](C)NC(C)=O)c1
0.22 | 0.23 | 4.43 | 5.18 | COc1ccccc1OCCNC(C)=O
 |  | 8.24 | 8.15 | COc1cccc(S[C@@H](C)CNC(C)=O)c1
0.5 | 0.31 | 4.94 | 5.26 | CC(=O)NCCOc1ccccc1

Ratio [1] | Ratio [2] | pKi [3] | pKi [4] | Structure (SMILES)
0.77 | 0.9 | 8.11 | 7.68 | COc1cccc(O[C@H](C)CNC(=O)C2CC2)c1
0.8 | 0.81 | 7.39 | 7.17 | COc1cccc(OCCNC(C)=O)c1
0.2 | 0 | 4.50 | 5.17 | CC(=O)NC(C)CSc1ccccc1 (stereo unspecified)
0.93 | 0.79 | 7.31 | 6.96 | COc1cccc(O[C@H](C)CNC(C)=O)c1
0.13 | 0.15 | 4.37 | 4.90 | COc1ccc(OC(C)CNC(C)=O)cc1 (stereo unspecified)
0.8 | 0.8 | 8.27 | 8.17 | COc1cccc(S[C@@H](C)CNC(=O)C2CC2)c1
0.63 | 0.77 | 8.07 | 8.01 | COc1cccc(SC(C)CNC(=O)C2CC2)c1 (stereo unspecified)
0.64 | 0.59 | 7.15 | 7.58 | CCCC(=O)NC[C@@H](C)Sc1cccc(OC)c1
0.56 | 0.48 | 5.55 | 5.62 | COc1ccc(SCCNC(C)=O)cc1
0.45 | 0.19 | 4.98 | 5.29 | COc1ccccc1OC(C)CNC(C)=O (stereo unspecified)
0.44 | 0.26 | 4.21 | 4.34 | COc1ccc(OCCNC(C)=O)cc1
 |  | 5.56 | 6.18 | COc1cccc(S[C@H](C)CNC(C)=O)c1
0.11 | 0.17 | 4.20 | 4.27 | CC(=O)N[C@H](C)COc1ccccc1
0.56 | 0.27 | 5.44 | 6.30 | COc1ccccc1SCCNC(C)=O
0.96 | 0.99 | 8.41 | 8.22 | CCCC(=O)NC[C@H](C)Sc1cccc(OC)c1
1.07 | 1.01 | 8.51 | 8.56 | CCCC(=O)NC[C@H](C)Oc1cccc(OC)c1
 |  | 6.96 | 6.58 | COc1cccc(SC(C)CNC(C)=O)c1 (stereo unspecified)
1.26 | 1.01 | 9.14 | 8.36 | COc1cccc(O[C@@H](C)CNC(=O)C2CC2)c1
0.99 | 1.02 | 8.04 | 8.30 | CCCC(=O)NCC(C)Sc1cccc(OC)c1 (stereo unspecified)
 |  | 4.92 | 5.88 | COc1cccc(SCC(C)NC(C)=O)c1 (stereo unspecified)
